Test results taken from ChEMBL document CHEMBL1127134, “Synthesis and antibacterial activity of (1R,5R,6R)-2-tert-butyl-6-(1-hydroxyethyl)oxapenem-3-carboxylic acid” (1993).

Tests used:
Format in all cases: functional
Bacteroides fragilis [1] = experiment: Minimum inhibitory concentration required for the antibacterial activity against Bacillus fragilis ES 25
Bacteroides fragilis [2] = experiment: Minimum inhibitory concentration required for the antibacterial activity against Bacillus fragilis GA I - 0558 Japan
Bacteroides fragilis [3] = experiment: Minimum inhibitory concentration required for the antibacterial activity against Bacillus fragilis L 1168 Italien
[4] = system: Parabacteroides distasonis; experiment: Minimum inhibitory concentration required for the antibacterial activity against Bacillus distasonis Kr
[5] = system: Bacteroides thetaiotaomicron; experiment: Minimum inhibitory concentration required for the antibacterial activity against Bacillus thetaiotaomicron DSM 2079
Phocaeicola vulgatus = experiment: Minimum inhibitory concentration required for the antibacterial activity against Bacillus valgatus Kr III
Clostridium perfringens = experiment: Minimum inhibitory concentration required for the antibacterial activity against Clostridium perfringens 24071
Escherichia coli [6] = experiment: Minimum inhibitory concentration required for the antibacterial activity against Escherichia coli Neumann
Escherichia coli [7] = experiment: Minimum inhibitory concentration required for the antibacterial activity against Escherichia coli 4322
Escherichia coli [8] = experiment: Minimum inhibitory concentration required for the antibacterial activity against Escherichia coli C165
Escherichia coli [9] = experiment: Minimum inhibitory concentration required for the antibacterial activity against Escherichia coli F14
Escherichia coli [10] = experiment: Minimum inhibitory concentration required for the antibacterial activity against Escherichia coli T7
Klebsiella = experiment: Minimum inhibitory concentration required for the antibacterial activity against Klebsiella 1852
[11] = system: Peptostreptococcus anaerobius; experiment: Minimum inhibitory concentration required for the antibacterial activity against Peptostrept. anaer. Kr I
Pseudomonas aeruginosa = experiment: Minimum inhibitory concentration required for the antibacterial activity against Pseudomonas aeruginosa 7053
[12] = system: Peptostreptococcus anaerobius; experiment: Minimum inhibitory concentration required for the antibacterial activity against Peptostrept. anaer. DSM 20357
Providencia rettgeri = experiment: Minimum inhibitory concentration required for the antibacterial activity against Proteus rettgeri 1007
Staphylococcus aureus [13] = experiment: Minimum inhibitory concentration required for the antibacterial activity against Staphylococcus aureus 25085
Staphylococcus aureus [14] = experiment: Minimum inhibitory concentration required for the antibacterial activity against Staphylococcus aureus 25463
Staphylococcus aureus [15] = experiment: Minimum inhibitory concentration required for the antibacterial activity against Staphylococcus aureus 25464
Staphylococcus aureus [16] = experiment: Minimum inhibitory concentration required for the antibacterial activity against Staphylococcus aureus 25470
Staphylococcus aureus [17] = experiment: Minimum inhibitory concentration required for the antibacterial activity against Staphylococcus aureus 17N Munchen
Clostridium septicum = experiment: Minimum inhibitory concentration required for the antibacterial activity against Clostridium septicum

C[C@@H](O)[C@H]1C(=O)N2C(C(=O)[O-])=C(C(C)(C)C)O[C@H]12.[K+]
MIC (Bacteroides fragilis [1]): 2 µg/mL
MIC (Bacteroides fragilis [2]): 2 µg/mL
MIC (Bacteroides fragilis [3]): 2 µg/mL
MIC [4]: 1 µg/mL
MIC [5]: 1 µg/mL
MIC (Phocaeicola vulgatus): 1 µg/mL
MIC (Clostridium perfringens): 0.5 µg/mL
MIC (Escherichia coli [6]): 2 µg/mL
MIC (Escherichia coli [7]): 2 µg/mL
MIC (Escherichia coli [8]): 8 µg/mL
MIC (Escherichia coli [9]): 16 µg/mL
MIC (Escherichia coli [10]): 2 µg/mL
MIC (Klebsiella): 16 µg/mL
MIC [11]: 2 µg/mL
MIC (Pseudomonas aeruginosa): > 128 µg/mL
MIC [12]: 1 µg/mL
MIC (Providencia rettgeri): 2 µg/mL
MIC (Staphylococcus aureus [13]): 1.56 µg/mL
MIC (Staphylococcus aureus [14]): 1.56 µg/mL
MIC (Staphylococcus aureus [15]): 3.12 µg/mL
MIC (Staphylococcus aureus [16]): 50 µg/mL
MIC (Staphylococcus aureus [17]): 1.56 µg/mL
MIC (Clostridium septicum): 2 µg/mL
